This experiment has as its system esterase from Pseudonocardia thermophila FERM BP-6275, homogeneously purified (Example 2). Put plainly: Effect of inhibitors on the purified esterase (remaining hydrolysis of racemic 6-aminochroman-3-acetic acid methyl ester). Type of experiment: biochemical.

We go through three compounds from US6303349A, “Esterase and methods for the production of optically active chroman compounds” (Mitsui Chemicals, Inc., priority 1997, dated 2001).

Structures are written as SMILES.

`O=S(=O)(F)Cc1ccccc1` [PMSF, phenylmethylsulfonyl fluoride]: for the setting “pH 7.2, 30 min, 100 µM”, the Relative activity was 84 and the remaining enzyme activity was 85%.
Take `OC(CS)C(O)CS` (stereo not shown) [DTT]: where the note is “inhibitor 0.1 mM, pre-incubated 30° C. 30 min, pH 7.2, reaction 55° C. 30 min, 100% = activity without inhibitors”, the Relative activity stood at 102%.
As for `O=C(O)CN(CCN(CC(=O)O)CC(=O)O)CC(=O)O` [EDTA], the Relative activity (pH 7.2, 30 min, 5000 µM) was found to be 103.
